# How the values were obtained:
# [1] = system: PHBPU; experiment: Pre-emergence herbicidal action against PHBPU; assay type: in vivo, Pharbitis purpurea
# Description: Seeds of monocotyledonous and dicotyledonous weed plants and crop plants are laid out in sandy loam soil in wood-fiber pots and covered with soil. The compounds of the invention, formulated in the form of wettable powders (WP) or as emulsion concentrates (EC), are then applied to the surface of the covering soil in the form of an aqueous suspension or emulsion at a water application rate equivalent to 600 to 800 l/ha, with addition of 0.2% wetting agent. After the treatment, the pots are placed in a greenhouse and kept under good growth conditions for the trial plants. The damage to the test plants is scored visually after a test period of 3 weeks by comparison with untreated controls (herbicidal activity in percent (%): 100% activity=the plants have died, 0% activity=like control plants). […] The tables below illustrate, in an illustrative manner, the post-emergence herbicidal action of the compounds of the invention, the herbicidal activity being stated in percent.
# [2] = system: ALOMY; experiment: Pre-emergence herbicidal action against ALOMY; assay type: in vivo, Alopecurus myosuroides; conditions: for Pre-emergence action against ALOMY (herbicidal activity): 80 g/ha, scored visually after 3 weeks vs untreated controls (100% = plants have died, 0% = like control plants)
# Outline: (§1)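 Greenhouse pots of sandy loam held seeds covered with soil, onto which the compound was applied before emergence. An aqueous suspension or emulsion of WP or EC was used at 600 to 800 l/ha with 0.2% wetting agent. Percent damage was judged visually at 3 weeks.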
# [3] = system: SETVI; experiment: Pre-emergence herbicidal action against SETVI; assay type: in vivo, Setaria viridis
# Outline: as §1
# [4] = system: ABUTH; experiment: Post-emergence herbicidal action against ABUTH; assay type: in vivo, Abutilon theophrasti; conditions: visual assessment about 3 weeks after treatment vs untreated controls
# Outline: (§2)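 A WP or EC formulation diluted in water with 0.2% wetting agent was sprayed at 600 to 800 l/ha onto one-leaf-stage plants grown in sandy loam. About 3 weeks later, action was rated visually in percent, 100% being dead plants.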
# [5] = system: ABUTH; experiment: Pre-emergence herbicidal action against ABUTH; assay type: in vivo, Abutilon theophrasti; conditions: for Pre-emergence action against ABUTH (herbicidal activity): 80 g/ha, scored visually after 3 weeks vs untreated controls (100% = plants have died, 0% = like control plants); for Pre-emergence action against ABUTH (herbicidal activity in percent): dosage 20 g/ha, scored visually after 3 weeks vs untreated controls, 100% = plants have died, 0% = like control plants
# Outline: as §1
# [6] = system: MATIN; experiment: Pre-emergence herbicidal action against MATIN; assay type: in vivo, Matricaria inodora
# Outline: as §1
# [7] = system: SETVI; experiment: Post-emergence herbicidal action against SETVI; assay type: in vivo, Setaria viridis; conditions: dosage 20 g/ha
# Outline: as §2
# [8] = system: AMARE; experiment: Post-emergence herbicidal action against AMARE; assay type: in vivo, Amaranthus retroflexus; conditions: 20 g/ha, visual assessment about 3 weeks after treatment, 100% = plants have died, 0% = like control plants
# Outline: as §2
# [9] = system: ECHCG; experiment: Pre-emergence herbicidal action against ECHCG; assay type: in vivo, Echinochloa crus-galli
# Outline: as §1
# [10] = system: ALOMY; experiment: Post-emergence herbicidal action against ALOMY; assay type: in vivo, Alopecurus myosuroides; conditions: visual assessment about 3 weeks after treatment vs untreated controls
# Outline: as §2
# [11] = system: AMARE; experiment: Pre-emergence herbicidal action against AMARE; assay type: in vivo, Amaranthus retroflexus
# Outline: as §1
# [12] = system: ECHCG; experiment: Post-emergence herbicidal action against ECHCG; assay type: in vivo, Echinochloa crus-galli
# Outline: as §2
# [13] = system: MATIN; experiment: Post-emergence herbicidal action against MATIN; assay type: in vivo, Matricaria inodora
# Outline: as §2
# [14] = system: VIOTR; experiment: Pre-emergence herbicidal action against VIOTR; assay type: in vivo, Viola tricolor
# Outline: as §1
# [15] = system: VIOTR; experiment: Post-emergence herbicidal action against VIOTR; assay type: in vivo, Viola tricolor
# Outline: as §2
# [16] = system: AVEFA; experiment: Pre-emergence herbicidal action against AVEFA; assay type: in vivo, Avena fatua; conditions: 80 g/ha, pre-emergence
# Outline: as §1
# [17] = system: PHBPU; experiment: Post-emergence herbicidal action against PHBPU; assay type: in vivo, Pharbitis purpurea
# Outline: as §2
# [18] = system: DIGSA; experiment: Pre-emergence herbicidal action against DIGSA; assay type: in vivo, Digitaria sanguinalis
# Outline: as §1
# [19] = system: DIGSA; experiment: Post-emergence herbicidal action against DIGSA; assay type: in vivo, Digitaria sanguinalis; conditions: for Post-emergence action against DIGSA in %: 5 g/ha; for Post-emergence action against DIGSA: 20 g/ha
# Outline: as §2
# [20] = system: VERPE; experiment: Pre-emergence herbicidal action against VERPE; assay type: in vivo, Veronica persica
# Outline: as §1
# [21] = 20 g/ha, scored visually after 3 weeks vs untreated controls, 100% = plants have died, 0% = like control plants
# [22] = 80 g/ha, scored visually after 3 weeks vs untreated controls (100% = plants have died, 0% = like control plants)
SMILES,Pre-emergence action against PHBPU in % ([1]; dosage 80 g/ha) [%],Pre-emergence action against ALOMY (herbicidal activity) [2] [%],Pre-emergence action against SETVI in % ([3]; dosage 80 g/ha) [%],Post-emergence action against ABUTH in % ([4]; dosage 5 g/ha) [%],Post-emergence action against ABUTH in % ([4]; dosage 20 g/ha) [%],Pre-emergence action against ABUTH (herbicidal activity) [5] [%],Pre-emergence action against ABUTH (herbicidal activity in percent) [5] [%],Pre-emergence action against MATIN in % ([6]; dosage 80 g/ha) [%],Post-emergence action against SETVI in % [7] [%],Post-emergence action at 20 g/ha against AMARE in % [8] [%],Pre-emergence action against ECHCG in % ([9]; 80 g/ha) [%],Post-emergence action against ALOMY in % ([10]; dosage 20 g/ha) [%],"Pre-emergence action against AMARE in % [11, 21] [%]","Pre-emergence action against AMARE in % [11, 22] [%]",Post-emergence action against ECHCG in % ([12]; dosage 20 g/ha) [%],Pre-emergence action against MATIN in % ([6]; dosage 20 g/ha) [%],Post-emergence action against MATIN in % ([13]; dosage 20 g/ha) [%],Pre-emergence action against VIOTR in % ([14]; dosage 20 g/ha) [%],Pre-emergence action against VIOTR in % ([14]; dosage 80 g/ha) [%],Post-emergence action against VIOTR in % ([15]; 20 g/ha) [%],other results
COCCNC(=O)c1c(Br)ccc(C(=O)Nc2nnnn2C)c1Cl [Example 1-186],80,90,80,90,90,100,100,90,80,100,80,90,80,100,90,–,–,–,–,–,Post-emergence action against ALOMY in % ([10]; dosage 5 g/ha): 80%
CCn1nnnc1NC(=O)c1ccc(Br)c(C(=O)NC(C)C)c1Cl [Example 2-185],100,90,100,90,100,100,100,100,80,100,90,90,100,100,100,100,90,80,100,100,Post-emergence action against MATIN in % ([13]; dosage 5 g/ha): 80%; Post-emergence action against VIOTR in % ([15]; 5 g/ha): 100%; Pre-emergence action against AVEFA in % [16]: 100%
CCn1nnnc1NC(=O)c1ccc(C(F)(F)F)c(C(=O)NCC2CC2)c1Br [Example 2-210],90,100,100,80,80,100,100,100,80,100,100,90,100,100,90,100,90,100,100,90,Pre-emergence action against PHBPU in % ([1]; dosage 20 g/ha): 80%; Post-emergence action against PHBPU in % ([17]; dosage 20 g/ha): 90%; Pre-emergence action against ECHCG in % ([9]; 20 g/ha): 80%; Pre-emergence action against DIGSA in % ([18]; dosage 20 g/ha): 100%; Pre-emergence action against DIGSA in % ([18]; dosage 80 g/ha): 100%; Pre-emergence action against AVEFA in % [16]: 90%; Post-emergence action against DIGSA in % [19]: 80%; Post-emergence action against DIGSA [19]: 90%
CCn1nnnc1NC(=O)c1ccc(C(F)(F)F)c(C(=O)NC(C)C2CC2)c1Br (stereo not drawn) [Example 2-213],90,–,100,–,80,100,100,100,–,–,90,–,100,100,80,100,100,100,100,90,Pre-emergence action against PHBPU in % ([1]; dosage 20 g/ha): 80%; Pre-emergence action against VERPE in % ([20]; dosage 80 g/ha): 90%; Post-emergence action against PHBPU in % ([17]; dosage 5 g/ha): 80%; Post-emergence action against PHBPU in % ([17]; dosage 20 g/ha): 80%; Post-emergence action against MATIN in % ([13]; dosage 5 g/ha): 90%; Pre-emergence action against DIGSA in % ([18]; dosage 20 g/ha): 80%; Pre-emergence action against DIGSA in % ([18]; dosage 80 g/ha): 100%; Post-emergence action against DIGSA [19]: 90%; Post-emergence action against ECHCG in % ([12]; dosage 5 g/ha): 80%
Cc1nnc(NC(=O)c2ccc(C(F)(F)F)c(C(=O)NC3CCC3)c2C)o1 [Example 6-256],80,90,100,80,90,100,–,90,–,90,100,–,90,100,90,–,–,90,90,–,"Pre-emergence action against ALOMY ([2]; 20 g/ha, scored visually after 3 weeks, 100% = plants have died, 0% = like control plants): 80%; Pre-emergence action against SETVI in % ([3]; dosage 20 g/ha): 80%; Pre-emergence action against VERPE in % ([20]; dosage 20 g/ha): 80%; Pre-emergence action against VERPE in % ([20]; dosage 80 g/ha): 80%; Post-emergence action against PHBPU in % ([17]; dosage 20 g/ha): 90%; Pre-emergence action against ECHCG in % ([9]; 20 g/ha): 80%; Pre-emergence action against DIGSA in % ([18]; dosage 20 g/ha): 90%; Pre-emergence action against DIGSA in % ([18]; dosage 80 g/ha): 100%; Pre-emergence action against AVEFA in % [16]: 80%; Post-emergence action against DIGSA in % [19]: 80%; Post-emergence action against DIGSA [19]: 90%; Post-emergence action against ECHCG in % ([12]; dosage 5 g/ha): 90%"

# From patent US12655116B2, “Substituted isophthalic acid diamides” (Bayer Aktiengesellschaft, priority 2020, dated 2026)
